Experimental data reported in US11505592B2, “Diagnosis and therapy of multiple sclerosis” (PRINDEX S.R.L., priority 2015, dated 2022).

Assays:
MS sera = assay: PEPSCAN-based ELISA, binding of MS sera to library peptides; parameters: species or system human; settings: ELISA binding value, MS sera n = 9
From the text: (§1) The linear and CLIPS peptides are synthesized based on the amino acid sequence of the target protein using standard Fmoc-chemistry and deprotected using […] with scavengers. The constrained peptides are synthesized on chemical scaffolds in order to reconstruct conformational epitopes, using Chemically Linked Peptides on Scaffolds (CLIPS) technology (Timmerman et al. (2007). For example, the single looped peptides are synthesized containing a dicysteine, which was cyclized by treating with alpha, alpha′-dibromoxylene and the size of the loop is varied by introducing cysteine residues at variable spacing. If other cysteines besides the newly introduced cysteines are present, they are replaced by alanine. The side-chains of the multiple cysteines in the peptides are coupled to CLIPS templates by reacting onto credit-card format polypropylene PEPSCAN cards (455 peptide formats/card) with a 0.5 mM solution of CLIPS template such as 1,3-bis (bromomethyl) benzene in ammonium bicarbonate (20 mM, pH 7.9)/acetonitrile (1:1(v/v)). The cards are gently shaken in the solution for 30 to 60 minutes while completely covered in solution. Finally, the cards are washed extensively with excess of H2O and sonicated in distrupt-buffer containing 1 percent SDS/0.1 percent beta-mercaptoethanol in PBS (pH 7.2) at 70° C. for 30 minutes, followed by sonication in H2O for another 45 minutes.
(§2) The binding of antibody to each peptide is tested in a PEPSCAN-based ELISA. The 455-well credit card format polypropylene cards containing the covalently linked peptides are incubated with primary antibody solution for example consisting of 1/1000 diluted serum in blocking solution, for example 4% horse serum, 5% ovalbumin (w/v) in PBS/1% Tween. After washing, the peptides are incubated with a 1/1000 dilution of antibody peroxidase conjugate for one hour at 25° C. After washing, the peroxidase substrate 2,2′-azino-di-3-ethylbenzthiazoline sulfonate (ABTS) and 2 microlitres of 3 percent H2O2 are added. After one hour, the color development are measured. The color development are quantified with a charge coupled device (CCD)-camera and an image processing system (Slootstra et al., 1996).
(§3) The raw data are optical values obtained by a CCD-camera calibrated to export absorption values compatible with a standard 96-well plate ELISA-reader. First the CCD-camera makes a picture of the card before peroxidase coloring and then again a picture after the peroxidase coloring. These two pictures are substracted from each other yielding a binding value for each peptide.
(§4) All peptides have been synthesized in a peptide array format and the binding of 20 different sera to all peptide libraries were measured in an ELISA based set up following the procedure described in detail in the method section “Peptide synthesis and screening assays”. In particular 2 sets of experiments were performed on the 2 libraries by using 2 different dilutions of the human patients sera. In the first set of experiment the 20 sera were used at 1:2500 dilutions, while in the second experiment the dilution of the sera was 1:1000. The binding of the different sera to all peptides was quantified and analyzed in detail (Tables 1 and 2, FIGS. 15A, B, C, D and […]

CTRL sera = assay: PEPSCAN-based ELISA, binding of control (CTRL) sera to library peptides; parameters: species or system human; settings: ELISA binding value, CTRLs n = 10
From the text: as §1, §2, §3, §4

Sequence	MEAN MS (MS sera; NOX2 library)	MEAN CTRL (CTRL sera; NOX2 library)	MEAN MS (MS sera; 5HT2A receptor library)	MEAN CTRL (CTRL sera; 5HT2A receptor library)
CNSDPYSVALSELGDRCITVSEQKISEWGKIKC [SEQ ID NO: 143]	781.611	456.45	–	–
CNSDPYSVALSELGDRCVSEQKISEWGKIKESC [SEQ ID NO: 130]	764.528	434.925	–	–
CNSLMQLNDDTRLYCLSSEGSLSPSSLSC [Peptide 6]	–	–	418.89	249.55
CNSLMQLNDDTRLYCMDILSEENTSLSSC [Peptide 1]	–	–	445.78	252.10
CNSLMQLNDDTRLYCYSNDFNSGEANTSC [Peptide 34]	–	–	459.72	268.10
CNSLMQLNDTRLYCSGEANTSDAFNWTC [Peptide 19]	–	–	564.11	299.55
CPYSVALSELGDRQNECITVSEQKISEWGKIKC [SEQ ID NO: 124]	824.056	469.75	–	–
CQKISEWGKIKAAPIPC [SEQ ID NO: 153]	710.778	402.15	–	–
CQKISEWGKIKESPIPCQNESYLNFARKRIKNC [SEQ ID NO: 69]	855.111	458.3	–	–
CQKISEWGKIKESPIPCTVSEQKISEWGKIKEC [SEQ ID NO: 93]	846.833	476.45	–	–
CQKISEWGKIKESPIPCVHNITVSEQKISEWGC [SEQ ID NO: 149]	442.611	263.25	–	–
CQKISEWGKIKESPIPCVSEQKISEWGKIKESC [SEQ ID NO: 98]	815.972	450.975	–	–
CQNESYLNFARKRIKNC [SEQ ID NO: 90]	667.389	361.75	–	–
CQNESYLNFARKRIKNCNFARKRIKNPEGGLYC [SEQ ID NO: 150]	697.056	392.3	–	–
CQNESYLNFARKRIKNCSYLNFARKRIKNPEGC [SEQ ID NO: 135]	711.556	396.7	–	–
CQNESYLNFARKRIKNCVSEQKISEWGKIKESC [SEQ ID NO: 111]	747.139	419.075	–	–
CQTAESLAVHNITVSECQNESYLNFARKRIKNC [SEQ ID NO: 100]	697.667	367.45	–	–
CQTAESLAVHNITVSECVSEQKISEWGKIKESC [SEQ ID NO: 139]	590.111	339.65	–	–
CRQNESYLNFARKRIKC [SEQ ID NO: 95]	653.944	350.1	–	–
CRVNNSDPYSVALSELCQNESYLNFARKRIKNC [SEQ ID NO: 137]	743.167	398.05	–	–

Sequence	MEAN MS (MS sera; NOX2 library)	MEAN CTRL (CTRL sera; NOX2 library)	MEAN MS (MS sera; 5HT2A receptor library)	MEAN CTRL (CTRL sera; 5HT2A receptor library)
CRVNNSDPYSVALSELCVSEQKISEWGKIKESC [SEQ ID NO: 151]	731.111	422.275	–	–
CSDAFNWTVDSENRCMDILSEENTSLSSC [Peptide 22]	–	–	394.00	207.20
CSELGDRQNESYLNFACQNESYLNFARKRIKNC [SEQ ID NO: 80]	773.167	398.9	–	–
CSEQKISEWGKIKESPC [SEQ ID NO: 114]	501.167	271.75	–	–
CSLSSTTNSLMQLNCMDILSEENTSLSSC [Peptide 18]	–	–	323.72	188.90
CSSLSLLHLQEKNWCMDILSEENTSLSSC [Peptide 45]	–	–	318.17	198.50
CSTTNSLMQLNDDTCMDILSEENTSLSSC [Peptide 11]	–	–	321.28	186.85
CSYLNFARKRIKNPEGCGDRQNESYLNFARKRC [SEQ ID NO: 125]	786.389	430.35	–	–
CSYLNFARKRIKNPEGCITVSEQKISEWGKIKC [SEQ ID NO: 122]	796.222	457.4	–	–
CSYLNFARKRIKNPEGCNFARKRIKNPEGGLYC [SEQ ID NO: 138]	659.944	371.8	–	–
CSYLNFARKRIKNPEGCQNESYLNFARKRIKNC [SEQ ID NO: 61]	778.278	398.9	–	–
CTRLYSNDFNSGEACKESSNEDVIGALLC [Peptide 42]	–	–	561.03	333.60
CTVDSENRTNLSSECMDILSEENTSLSSC [Peptide 13]	–	–	300.11	160.80
CTVDSENRTNLSSECRTNLSSEGSLSPSC [Peptide 25]	–	–	507.22	296.95
CVALSELGDRQNESYLCQNESYLNFARKRIKNC [SEQ ID NO: 110]	761.778	406.75	–	–
CVFKEGSSLLADDNCKESSNEDVIGALLC [Peptide 38]	–	–	594.61	348.13
CVFKEGSSLLADDNCSDAFNWTVDSENRC [Peptide 47]	–	–	399.89	244.50
CVNARVNNSDPYSVALCTVSEQKISEWGKIKEC [SEQ ID NO: 154]	799.667	455.6	–	–
CVNARVNNSDPYSVALCVSEQKISEWGKIKESC [SEQ ID NO: 128]	772.583	436.575	–	–
CVRGQTAESLAVHNITCITVSEQKISEWGKIKC [SEQ ID NO: 134]	758.278	440.5	–	–

Sequence	MEAN MS (MS sera; NOX2 library)	MEAN CTRL (CTRL sera; NOX2 library)	MEAN MS (MS sera; 5HT2A receptor library)	MEAN CTRL (CTRL sera; 5HT2A receptor library)
CVRGQTAESLAVHNITCQNESYLNFARKRIKNC [SEQ ID NO: 66]	824.500	438.35	–	–
CVRGQTAESLAVHNITCSLAVHNITVSEQKISC [SEQ ID NO: 156]	546.444	304.75	–	–
CVRGQTAESLAVHNITCVHNITVSEQKISEWGC [SEQ ID NO: 148]	445.278	263.5	–	–
CVSEQKISEWGKIKESCEQKISEWGKIKESPIC [SEQ ID NO: 84]	811.056	443.5	–	–
CVSEQKISEWGKIKESCGDRQNESYLNFARKRC [SEQ ID NO: 112]	846.778	462.45	–	–
CVSEQKISEWGKIKESCQNESYLNFARKRIKNC [SEQ ID NO: 64]	804.556	402.9	–	–
CVSEQKISEWGKIKESCTVSEQKISEWGKIKEC [SEQ ID NO: 142]	760.333	446.5	–	–
CVSEQKISEWGKIKESCVSEQKISEWGKIKESC [SEQ ID NO: 115]	756.639	432.35	–	–
DPYSVALSELAARQN [SEQ ID NO: 78]	565.389	325.05	–	–
DPYSVALSELGDRQN [SEQ ID NO: 132]	300.556	177.25	–	–
ESYLNFARK [SEQ ID NO: 107]	535.667	296.3	–	–
FARKRIKNP [SEQ ID NO: 67]	666.111	337.4	–	–
GDRQNESYLNAGRKR [SEQ ID NO: 68]	547.278	294.2	–	–
GDRQNESYLNFARKR [SEQ ID NO: 120]	325.333	163.95	–	–
GKIKECPIP [SEQ ID NO: 102]	594.611	324.35	–	–
GYRWPLPSK [Peptide 14]	–	–	623.00	322.80
KISEWGKIK [SEQ ID NO: 83]	404.500	223.9	–	–
LGDRQNESYLAAARK [SEQ ID NO: 127]	478.278	262.75	–	–
